# Publication PMC2665923 (Journal of medicinal chemistry, 2009)
# “Also recorded” adds a separate entry of the source.
# Legend:
# [1] = Storage stability at rt; assay type: physicochemical; conditions: few weeks at rt
# [2] = system: BXPC3 and HupT3 pancreatic cancer cells; experiment: Apoptosis by Hoechst staining; assay type: cell-based; conditions: 5 (5 μM), 26 (5 μM), 27 (20 μM), 36 h
# [3] = system: pancreatic cancer cells (MiaPaCa-2, BXPC3, HupT3); experiment: Pancreatic cancer cell proliferation; assay type: cell-based; conditions: for antiproliferative activity in pancreatic cancer cells: MiaPaCa-2, BXPC3, HupT3
# [4] = system: NFκB-mediated expression of XIAP; experiment: Western immunoblot of XIAP expression; assay type: cell-based; conditions: BXPC3; 5 and 26 at 5 μM; 27 up to 20 μM
# [5] = system: GSK-3β activity (phosphorylation of glycogen synthase); experiment: Western immunoblot of glycogen synthase phosphorylation in cells; assay type: cell-based; conditions: BXPC3, 5 and 26 at 5 μM, 6-36 h, 27 at 5, 10, 20 μM
# [6] = system: pancreatic cancer cells (MiaPaCa-2, BXPC3, HupT3); conditions: BXPC3, HupT3 and MiaPaCa-2; shown earlier; cited from earlier work
smiles,measurement,setting,value
"Cn1cc(C2=C(c3coc4cc(O)ccc34)C(=O)NC2=O)c2cc(F)ccc21 [Compound 4, 3-(5-Fluoro-1-methyl-1H-indol-3-yl)-4-(6-hydroxy-benzofuran-3-yl)-pyrrole-2,5-dione]",stability on storage,[1],Partially degradated after few weeks at rt
"COc1cccc2c(C3=C(c4cn(C)c5cc(I)c(F)cc45)C(=O)NC3=O)coc12 [Compound 5, 3-(5-Fluoro-6-iodo-1-methyl-1H-indol-3-yl)-4-(7-methoxy-benzofuran-3-yl)-pyrrole-2,5-dione]",apoptosis / survival of pancreatic cancer cells,[2],significant apoptosis
same,antiproliferative activity in pancreatic cancer cells,[3],good antiproliferative activity
same,concentrations showing significant anticancer activity,[3]; pancreatic cancer cells,1 to 5 µM
same,NFκB-mediated expression of XIAP,[4],pronounced decrease
same,GSK-3β activity in cells (GS phosphorylation),[5],effectively inhibited
"Cn1cc(C2=C(c3coc4ccccc34)C(=O)NC2=O)c2cc(F)c(Cl)cc21 [Compound 6, 3-Benzofuran-3-yl-4-(6-chloro-5-fluoro-1-methyl-1H-indol-3-yl)-pyrrole-2,5-dione]",antiproliferative activity in pancreatic cancer cells,[3],good antiproliferative activity
"COc1cccc2c(C3=C(c4cn(C)c5cc(Cl)c(F)cc45)C(=O)NC3=O)coc12 [Compound 11, 3-(6-Chloro-5-fluoro-1-methyl-1H-indol-3-yl)-4-(7-methoxy-benzofuran-3-yl)-pyrrole-2,5-dione]",antiproliferative activity in pancreatic cancer cells,[3],good antiproliferative activity
Cn1cc(C2=C(c3coc4ccccc34)C(=O)NC2=O)c2cc(Br)ccc21 [Compound 13],antiproliferative activity in pancreatic cancer cells,[3],little or no inhibitory activity
"C#CCOc1ccc2c(C3=C(c4cn(C)c5ccc(Br)cc45)C(=O)NC3=O)coc2c1 [Compound 16, 3-(5-Bromo-1-methyl-1H-indol-3-yl)-4-(6-prop-2-ynyloxy-benzofuran-3-yl)-pyrrole-2,5-dione]",stability on storage,[1],Partially degradated after few weeks at rt
"COc1cccc2c(C3=C(c4cn(C)c5c(Br)cc(Br)cc45)C(=O)NC3=O)coc12 [Compound 20, 3-(5,7-Dibromo-1-methyl-1H-indol-3-yl)-4-(7-methoxy-benzofuran-3-yl)-pyrrole-2,5-dione]",antiproliferative activity in pancreatic cancer cells,[3],good antiproliferative activity
"Cn1cc(C2=C(c3coc4ccccc34)C(=O)NC2=O)c2cc(I)ccc21 [Compound 21, 3-Benzofuran-3-yl-4-(5-iodo-1-methyl-1H-indol-3-yl)-pyrrole-2,5-dione]",antiproliferative activity in pancreatic cancer cells,[3],little or no inhibitory activity
"Cn1cc(C2=C(c3coc4ccc(F)cc34)C(=O)NC2=O)c2cc(I)ccc21 [Compound 22, 3-(5-Fluoro-benzofuran-3-yl)-4-(5-iodo-1-methyl-1H-indol-3-yl)-pyrrole-2,5-dione]",antiproliferative activity in pancreatic cancer cells,[3],little or no inhibitory activity
"Cn1cc(C2=C(c3coc4ccc(F)cc34)C(=O)NC2=O)c2cc(C#CC3CC3)ccc21 [Compound 25, 3-(5-Cyclopropylethynyl-1-methyl-1H-indol-3-yl)-4-(5-fluoro-benzofuran-3-yl)-pyrrole-2,5-dione]",antiproliferative activity in pancreatic cancer cells,[3],little or no inhibitory activity
"Cn1cc(C2=C(c3coc4ccc(F)cc34)C(=O)NC2=O)c2cc3c(cc21)OCO3 [Compound 26, 3-(5-Fluoro-benzofuran-3-yl)-4-(5-methyl-5H-[1,3]dioxolo[4,5-f]indol-7-yl)-pyrrole-2,5-dione]",apoptosis / survival of pancreatic cancer cells,[2],significant apoptosis
same,antiproliferative activity in pancreatic cancer cells,[3],good antiproliferative activity
same,NFκB-mediated expression of XIAP,[4],pronounced decrease
same,GSK-3β activity in cells (GS phosphorylation),[5],effectively inhibited
"COc1cc2c(C3=C(c4coc5ccccc45)C(=O)NC3=O)cn(C)c2cc1Cl [Compound 27, 3-Benzofuran-3-yl-4-(6-chloro-5-methoxy-1-methyl-1H-indol-3-yl)-pyrrole-2,5-dione]",apoptosis / survival of pancreatic cancer cells,[2],did not affect
same,antiproliferative activity in pancreatic cancer cells,[3],did not affect; also recorded: little or no inhibitory activity
same,NFκB-mediated expression of XIAP,[4],no such effect
same,GSK-3β activity in cells (GS phosphorylation),[5],did not affect
"COCc1cccc2c(C3=C(c4coc5ccccc45)C(=O)NC3=O)cn(C)c12 [Compound 33, 3-Benzofuran-3-yl-4-(7-methoxymethyl-1-methyl-1H-indol-3-yl)-pyrrole-2,5-dione]",antiproliferative activity in pancreatic cancer cells,[3],little or no inhibitory activity
COc1ccc(CNC(=O)Nc2ncc([N+](=O)[O-])s2)cc1 [Compound 77],pancreatic cancer cell proliferation,[6],significant decrease
Cn1cc(C2=C(c3ccc(Cl)cc3Cl)C(=O)NC2=O)c2ccccc21 [Compound 78],pancreatic cancer cell proliferation,[6],significant decrease
